# Results as given in PMC12974487, “Inhibition of FicD-mediated AMPylation and deAMPylation by isoprenoid diphosphates” (Proceedings of the National Academy of Sciences of the …, 2026).
# Target: T1, FicD^R371S (Homo sapiens, UniProt Q9BVA6, R371S)
# T1 construct: Wild-type FicD (residues 105-458) and all mutants were expressed as N-terminal 6xHis-Sumo fusions; 6xHis-Sumo (N, cleaved yes); made in house; host or cells: Rosetta(DE3) E. coli
# T1 sequence (Q9BVA6 105-458 R371S): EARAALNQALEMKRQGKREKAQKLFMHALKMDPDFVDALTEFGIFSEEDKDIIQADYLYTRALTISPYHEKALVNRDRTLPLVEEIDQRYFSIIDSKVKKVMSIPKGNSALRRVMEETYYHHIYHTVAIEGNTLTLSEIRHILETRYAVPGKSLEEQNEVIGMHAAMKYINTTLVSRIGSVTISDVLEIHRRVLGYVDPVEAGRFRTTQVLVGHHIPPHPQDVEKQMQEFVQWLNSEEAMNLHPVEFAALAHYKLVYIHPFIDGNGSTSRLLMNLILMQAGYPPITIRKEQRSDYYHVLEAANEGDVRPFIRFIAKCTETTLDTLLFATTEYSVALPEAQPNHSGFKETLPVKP
# Experiment: AMPylation of Δ26hBiP^T229A by pathogenic variant FicD^R371S
# Assay type: biochemical
# Details: indicated concentrations of FPP
# Text: Fig. 5. Crystal structure of FPP inhibitor bound to FicD active site. […] FPP (cyan stick) and Mg^2+ (cyan sphere) in the pocket of FicD shown as APBS electrostatic surface with positive areas in blue, negative in red, and neutral in white (contour level: ±5 kBT/e) (Right). […] (C–E) AMPylation assays of Δ26hBiP^T229A in the presence of the indicated concentration of FPP using the pathogenic human variants (C) FicD^R371S, (D) FicD^R374H and (E) FicD^R374C. AMPylated BiP and Fic were quantified by immunodetection, and total BiP was quantified by CBB. […]
# Isothermal Titration Calorimetry
# Proteins were dialyzed against 25mM HEPES pH 7.4/100mM KCl/10% glycerol prior to titration. […]
# MgCl2 was added to […]
# proteins to a final concentration of 4mM. ITC experiments were performed in a Micro-Cal PEAQ-ITC (Malvern Panalytical, Worcestershire, UK) calorimeter with a stirred 206.2 μL reaction cell held at 20 °C. 250μM FPP was titrated into 25uM Δ104hFicL258D with 750rpm stirring. The first injection was 0.5 μL, followed by twenty 1.9 μL injections. […]
# Thermogram and binding figures were plotted in
# For AMPylation assays with FicD and BiP, Δ104FicDWT and Δ26hBiPT229A were combined at a ratio of 1:80 in buffer containing 25mM HEPES pH 7.4, 100mM KCl, 5mM MgCl2, 500μM ATP, 1mM DTT, and small molecule where indicated. Assays with Δ104FicDWT were incubated for 1 hour. […]
smiles,measurement,value
"CC(C)=CCC/C(C)=C/CC/C(C)=C/COP(=O)(O)OP(=O)(O)O [FPP, farnesyl-pyrophosphate]",FPP inhibition of FicD^R371S AMPylation activity,total loss of FPP inhibition
